The target of assay [1] is T1, ΔF508-CFTR (Homo sapiens, UniProt P13569, DEL508-508).
T1 construct: host or cells: CFBE41o-, doxycycline-inducible
Put plainly: CFTR cell surface levels using HRP-tagged ΔF508-CFTR expressing CFBE cells, in the presence of a co-corrector. The note with it: HRP-tagged ΔF508-CFTR expressing CFBE cells, in the presence of 3 μM co-corrector; for EC50: read-out: EC50. Type of assay: cell-based. The procedure, abridged: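 Cells were seeded with 0.5 μg/mL doxycycline and held 68 h at 37 °C. Test compounds plus 3 μM co-corrector (final 0.1% DMSO) were then added for 20 h at 33 °C. Washed cells received HRP substrate, and luminescence was normalized between DMSO and 3 μM co-corrector controls.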

In assay [2] the target is T1, ΔF508-CFTR. Put plainly: CFTR cell surface levels using HRP-tagged ΔF508-CFTR expressing CFBE cells, intrinsic corrector capacity. Type of assay: cell-based. The conditions noted are these: for EC50: read-out: EC50. The procedure, abridged: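 Here the cells express ΔF508-CFTR with horseradish peroxidase inserted in extracellular loop 4, so only rescued channel at the surface gives luminescent signal. Compounds act on their own, 20 h at the reduced temperature of 33 °C; values are percent activity relative to DMSO and a 3 μM corrector.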

The mark [3] stands for this setting: HRP-tagged ΔF508-CFTR expressing CFBE cells, intrinsic corrector capacity (no co-corrector), 33° C., 20 hours.
Where [4] appears, read: HRP-tagged ΔF508-CFTR CFBE41o- cells, compounds alone (intrinsic corrector capacity), 20 hours at 33° C., positive control 3 μM corrector.
Setting [5] is: HRP-tagged ΔF508-CFTR CFBE41o- cells, compounds alone (intrinsic corrector capacity), 20 hours at 33° C.

T1 sequence (P13569 with tags, fused parts or gaps DEL508-508): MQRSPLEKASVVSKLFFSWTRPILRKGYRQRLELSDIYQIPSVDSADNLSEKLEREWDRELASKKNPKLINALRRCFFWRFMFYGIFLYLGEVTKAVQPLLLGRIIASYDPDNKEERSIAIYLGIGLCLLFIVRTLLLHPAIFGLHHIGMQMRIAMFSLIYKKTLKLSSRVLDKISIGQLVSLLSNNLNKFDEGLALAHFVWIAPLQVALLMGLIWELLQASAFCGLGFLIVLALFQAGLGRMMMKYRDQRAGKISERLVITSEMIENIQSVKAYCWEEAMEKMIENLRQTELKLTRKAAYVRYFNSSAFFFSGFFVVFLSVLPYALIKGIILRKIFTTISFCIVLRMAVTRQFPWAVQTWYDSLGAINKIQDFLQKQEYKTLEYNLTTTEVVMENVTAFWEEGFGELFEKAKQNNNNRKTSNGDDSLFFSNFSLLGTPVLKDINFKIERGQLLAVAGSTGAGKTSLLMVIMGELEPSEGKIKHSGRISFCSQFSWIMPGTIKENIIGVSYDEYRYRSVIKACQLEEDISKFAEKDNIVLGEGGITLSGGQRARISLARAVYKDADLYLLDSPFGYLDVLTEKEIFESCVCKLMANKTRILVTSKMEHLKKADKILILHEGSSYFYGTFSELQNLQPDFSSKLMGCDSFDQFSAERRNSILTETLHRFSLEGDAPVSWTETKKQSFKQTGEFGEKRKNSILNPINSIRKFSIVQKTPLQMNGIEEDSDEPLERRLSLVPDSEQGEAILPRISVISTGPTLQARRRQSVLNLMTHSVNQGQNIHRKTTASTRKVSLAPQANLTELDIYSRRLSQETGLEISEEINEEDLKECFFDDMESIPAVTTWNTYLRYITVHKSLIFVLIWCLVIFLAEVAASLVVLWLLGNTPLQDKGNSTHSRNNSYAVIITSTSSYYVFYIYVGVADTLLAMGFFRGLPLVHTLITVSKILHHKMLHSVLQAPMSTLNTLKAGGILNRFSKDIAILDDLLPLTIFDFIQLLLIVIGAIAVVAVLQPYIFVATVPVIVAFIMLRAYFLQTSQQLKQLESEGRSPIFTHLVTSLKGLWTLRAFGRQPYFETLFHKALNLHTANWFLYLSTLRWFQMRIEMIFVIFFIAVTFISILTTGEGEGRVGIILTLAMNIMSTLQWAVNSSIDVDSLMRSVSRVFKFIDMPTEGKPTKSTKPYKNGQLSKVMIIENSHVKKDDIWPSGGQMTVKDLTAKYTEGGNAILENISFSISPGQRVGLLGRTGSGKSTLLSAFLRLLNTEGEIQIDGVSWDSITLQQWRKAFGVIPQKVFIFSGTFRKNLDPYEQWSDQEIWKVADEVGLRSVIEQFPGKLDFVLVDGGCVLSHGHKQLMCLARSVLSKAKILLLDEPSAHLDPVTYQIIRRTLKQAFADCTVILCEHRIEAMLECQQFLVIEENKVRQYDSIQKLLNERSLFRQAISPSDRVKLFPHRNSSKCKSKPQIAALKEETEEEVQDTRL

`CC(C)c1nn(-c2ccc(F)cc2)c2nc(C(=O)O)cc(N3CCC(N(C)C(C)C)CC3)c12` [compound 799, 1-(4-fluorophenyl)-4-{4-[methyl(propan-2-yl)amino]piperidin-1-yl}-3-(propan-2-yl)-1H-pyrazolo[3,4-b]pyridine-6-carboxylic acid]: the “% Activation” value in assay [1] was found to be 306.6%; in assay [2] (setting [3]) it was 114%. Moreover, the EC50 in assay [1] and in assay [2] (setting [3]) was 1670 nM in each case.

For the compound `CC(C)c1nn(-c2cccc(N(C)C)c2)c2nc(C(=O)O)cc(-c3cnc(N4CCOCC4)nc3)c12` [compound 84, 1-[3-(dimethylamino)phenyl]-4-[2-(morpholin-4-yl)pyrimidin-5-yl]-3-(propan-2-yl)-1H-pyrazolo[3,4-b]pyridine-6-carboxylic acid], the “% Activation” value in assay [1] was found to be 541.12%; in assay [2] (setting [4]), 289.83%. In addition, the EC50 (commonly the concentration needed to bring the measured effect to its halfway point) is 734 nM in assay [1] and 829 nM in assay [2] (setting [5]).

Regarding `N#CC1CCN(c2ccc(-c3cc(C(=O)O)nc4c3c(OC3COC3)nn4-c3ccccc3)cn2)CC1` [compound 592, 4-[6-(4-cyanopiperidin-1-yl)pyridin-3-yl]-3-[(oxetan-3-yl)oxy]-1-phenyl-1H-pyrazolo[3,4-b]pyridine-6-carboxylic acid], the “% Activation” value in assay [1] came to 279%; in assay [2] (setting [3]), 116.6%. Also, the concentration for a half-maximal effect (EC50) in assay [1] worked out at 584 nM; in assay [2] (setting [3]), 1160 nM.

With `CC(C)c1nn(-c2ccc(F)cc2)c2nc(C(=O)O)cc(N3CCC[C@@H](O)C3)c12` [compound 783, 1-(4-fluorophenyl)-4-[(3R)-3-hydroxypiperidin-1-yl]-3-(propan-2-yl)-1H-pyrazolo[3,4-b]pyridine-6-carboxylic acid], in assay [1], the “% Activation” value is recorded as 283.6% and the EC50 was 1670 nM. For the same compound, in assay [2] (setting [3]), the “% Activation” value is 95.05% and the EC50 came to 1670 nM.

In the case of `CC(C)c1nn(C2CCCCC2)c2nc(C(=O)O)cc(-c3ccnn3C)c12` [compound 370, 1-cyclohexyl-4-(1-methyl-1H-pyrazol-5-yl)-3-(propan-2-yl)-1H-pyrazolo[3,4-b]pyridine-6-carboxylic acid], the figures for the “% Activation” value in assay [1] and in assay [2] (setting [4]) were 133% and 19.18%, respectively. Also, the concentration giving a half-maximal response (EC50) in assay [1] and in assay [2] (setting [5]) was over 10000 nM throughout.

Regarding `CC(C)c1nn(-c2cccc(N(C)C)c2)c2nc(C(=O)O)cc(N3CCC(C(F)(F)F)C3)c12` (centres unmarked) [compound 270, 1-[3-(dimethylamino)phenyl]-3-(propan-2-yl)-4-[3-(trifluoromethyl)pyrrolidin-1-yl]-1H-pyrazolo[3,4-b]pyridine-6-carboxylic acid], the entries for the “% Activation” value in assay [1] and in assay [2] (setting [4]) were 430.4% and 236.02%, respectively. Moreover, the EC50 was 529 nM in assay [1] and 698 nM in assay [2] (setting [5]).

For `Cc1nn(C2CCCCC2)c2nc(C(=O)O)cc(-c3ccc(N4CCOCC4)nc3)c12` [compound 74, 1-cyclohexyl-3-methyl-4-[6-(morpholin-4-yl)pyridin-3-yl]-1H-pyrazolo[3,4-b]pyridine-6-carboxylic acid], the “% Activation” value in assay [1] was determined as 257.2%; in assay [2] (setting [4]) it was 116.7%. The EC50 in assay [1] turned out to be 1480 nM; in assay [2] (setting [5]) it was 2560 nM.

For the compound `CN(C)CCCOc1cc(C(=O)O)nc2c1c(C1CCC1)nn2-c1ccccc1` [compound 635, 3-cyclobutyl-4-[3-(dimethylamino)propoxy]-1-phenyl-1H-pyrazolo[3,4-b]pyridine-6-carboxylic acid], the “% Activation” value in assay [1] was 233.85%; in assay [2] (setting [3]), 86.1%. For the same compound, the EC50 in assay [1] was determined as 2110 nM; in assay [2] (setting [3]) it was 3330 nM.

Turning to `O=C(O)c1cc(N2CCC([C@H](F)CO)CC2)c2c(C3CCC3)nn(-c3ccccc3)c2n1` [compound 457, 3-cyclobutyl-4-{4-[(1S)-1-fluoro-2-hydroxyethyl]piperidin-1-yl}-1-phenyl-1H-pyrazolo[3,4-b]pyridine-6-carboxylic acid], in assay [1], the “% Activation” value is given as 430.85% and the EC50 was 392 nM. In addition, in assay [2] (setting [3]), the “% Activation” value was 240.3% and the half-maximal effective concentration (EC50) was determined as 607 nM.

Consider `Cc1nn(-c2cccc(F)c2)c2nc(C(=O)O)cc(-c3ccc(N4CCOCC4)nc3)c12` [compound 101, 1-(3-fluorophenyl)-3-methyl-4[6-(morpholin-4-yl)pyridin-3-yl]-1H-pyrazolo[3,4-b]pyridine-6-carboxylic acid], for which the “% Activation” value in assay [1] is 331.65%; in assay [2] (setting [4]), 143.75%. Also, the concentration for a half-maximal effect (EC50) in assay [1] came to 999 nM; in assay [2] (setting [5]), 1610 nM.

Turning to `Cc1nn(-c2ccccc2)c2nc(C(=O)O)cc(-c3ccc(N4CC(C)OC(C)C4)cc3)c12` (centres unmarked) [compound 114, 4-[4-(2,6-dimethylmorpholin-4-yl)phenyl]-3-methyl-1-phenyl-1H-pyrazolo[3,4-b]pyridine-6-carboxylic acid], the “% Activation” value came out at 460.85% in assay [1] and 251.05% in assay [2] (setting [4]). The EC50 in assay [1] stood at 1240 nM; in assay [2] (setting [5]) it was 806 nM.

Regarding `O=C(O)c1cc(OCCCN2CCOCC2)c2c(C3CCC3)nn(-c3ccccc3)c2n1` [compound 487, 3-cyclobutyl-4-[3-(morpholin-4-yl)propoxy]-1-phenyl-1H-pyrazolo[3,4-b]pyridine-6-carboxylic acid], in assay [1], the “% Activation” value is given as 316.5% and the EC50 worked out at 491 nM. In assay [2] (setting [3]), the “% Activation” value stood at 142.7% and the 50% effective concentration (EC50) worked out at 835 nM.

On to `CC(C)c1nn(-c2ccc(F)cc2)c2nc(C(=O)O)cc(N3CCN(C(C)(C)C)CC3)c12` [compound 788, 4-(4-tert-butylpiperazin-1-yl)-1-(4-fluorophenyl)-3-(propan-2-yl)-1H-pyrazolo[3,4-b]pyridine-6-carboxylic acid], for which, in assay [1], the “% Activation” value was found to be 329.4% and the EC50 was 1670 nM. Also, in assay [2] (setting [3]), the “% Activation” value worked out at 115.7% and the EC50 turned out to be 1670 nM.

Regarding `O=C(O)c1cc(N2CCC(N3CCOCC3)CC2)c2c(C3CCC3)nn(-c3ccnc(OC(F)F)c3)c2n1` [compound 889, 3-cyclobutyl-1-[2-(difluoromethoxy)pyridin-4-yl]-4-[4-(morpholin-4-yl)piperidin-1-yl]-1H-pyrazolo[3,4-b]pyridine-6-carboxylic acid], the entries for the “% Activation” value in assay [1] and in assay [2] (setting [3]) were 449.8% and 229.2%, respectively. Further, the half-maximal effective concentration (EC50) was found to be 241 nM in assay [1] and 404 nM in assay [2] (setting [3]).

With `CC(C)c1nn(-c2cccc(N3CCC3)c2)c2nc(C(=O)O)cc(-c3ccc(N(C)C4CCOCC4)cc3)c12` [compound 240, 1-[3-(azetidin-1-yl)phenyl]-4-{4-[methyl(oxan-4-yl)amino]phenyl}-3-(propan-2-yl)-1H-pyrazolo[3,4-b]pyridine-6-carboxylic acid], the “% Activation” value in assay [1] was 609.05%; in assay [2] (setting [4]) it was 380.6%. Besides, the results for the half-maximal effective concentration (EC50) in assay [1] and in assay [2] (setting [5]) were 516 nM and 588 nM, respectively.

In the case of `CC(=O)N1CCC(F)(COc2cc(C(=O)O)nc3c2c(C2CCC2)nn3-c2ccccc2)CC1` [compound 479, 4-[(1-acetyl-4-fluoropiperidin-4-yl)methoxy]-3-cyclobutyl-1-phenyl-1H-pyrazolo[3,4-b]pyridine-6-carboxylic acid], the “% Activation” value in assay [1] was 317.77%; in assay [2] (setting [3]), 114.41%. Moreover, the EC50 in assay [1] and in assay [2] (setting [3]) was 1850 nM each time.

Take `CC(C)c1nn(C2CCCCC2)c2nc(C(=O)O)cc(-c3ccc(N4CCOCC4)nc3)c12` [compound 81, 1-cyclohexyl-4-[6-(morpholin-4-yl)pyridin-3-yl]-3-(propan-2-yl)-1H-pyrazolo[3,4-b]pyridine-6-carboxylic acid]: the “% Activation” value in assay [1] is on record as 398.25%; in assay [2] (setting [4]) it was 193.6%. Besides, the concentration giving a half-maximal response (EC50) in assay [1] came out at 570 nM; in assay [2] (setting [5]), 744 nM.

With `O=C(O)c1cc(N2CCC(N3CCC(F)C3)CC2)c2c(C3CCC3)nn(-c3ccc(F)cc3)c2n1` (centres unmarked) [compound 846, 3-cyclobutyl-1-(4-fluorophenyl)-4-[4-(3-fluoropyrrolidin-1-yl)piperidin-1-yl]-1H-pyrazolo[3,4-b]pyridine-6-carboxylic acid], in assay [1], the “% Activation” value stood at 495.1% and the EC50 came to 968 nM. In assay [2] (setting [3]), the “% Activation” value amounted to 317.9% and the EC50 was 874 nM.

On to `COc1ccc(-n2nc(C3CCC3)c3c(N4CCC(N5CCOCC5)CC4)cc(C(=O)O)nc32)cc1F` [compound 912, 3-cyclobutyl-1-(3-fluoro-4-methoxyphenyl)-4-[4-(morpholin-4-yl)piperidin-1-yl]-1H-pyrazolo[3,4-b]pyridine-6-carboxylic acid], for which, in assay [1], the “% Activation” value amounted to 397.9% and the EC50 came to 267 nM. Also, in assay [2] (setting [3]), the “% Activation” value came to 212.4% and the EC50 came out at 720 nM.

For `Cc1cccc(-n2nc(C)c3c(-c4ccc(N5CCOCC5)cc4)cc(C(=O)O)nc32)c1` [compound 13, 3-methyl-1-(3-methylphenyl)-4-[4-(morpholin-4-yl)phenyl]-1H-pyrazolo[3,4-b]pyridine-6-carboxylic acid], the “% Activation” value turned out to be 363.7% in assay [1] and 159.23% in assay [2] (setting [4]). The results for the 50% effective concentration (EC50) in assay [1] and in assay [2] (setting [5]) were 723 nM and 997 nM, respectively.

For the origin of these results see patent US9796711B2, “Substituted pyrazolo[3,4-b]pyridin-6-carboxylic acids and method of use” (AbbVie S.àr.l., priority 2015, dated 2017).
